Experimental data published in US8586603B2, “Aminotetraline derivatives” (priority 2009, dated 2013).

Assays:
[1] = target: T1, porcine cortical p5-HT1a serotonin receptor (Sus scrofa, UniProt A0A4X1UTF5); test: Receptor binding assay, [3H]WAY100635 competition, porcine cortical membranes; details: for Ki: means of 2-8 individual experiments each done as triplicate; for selectivity ratio p5-HT1a: reference receptor of the ratio (=1)
T1 construct: membrane homogenates prepared from porcine striatal or cortical tissue; from tissue; host or cells: porcine cortex
T1 sequence (A0A4X1UTF5 1-422): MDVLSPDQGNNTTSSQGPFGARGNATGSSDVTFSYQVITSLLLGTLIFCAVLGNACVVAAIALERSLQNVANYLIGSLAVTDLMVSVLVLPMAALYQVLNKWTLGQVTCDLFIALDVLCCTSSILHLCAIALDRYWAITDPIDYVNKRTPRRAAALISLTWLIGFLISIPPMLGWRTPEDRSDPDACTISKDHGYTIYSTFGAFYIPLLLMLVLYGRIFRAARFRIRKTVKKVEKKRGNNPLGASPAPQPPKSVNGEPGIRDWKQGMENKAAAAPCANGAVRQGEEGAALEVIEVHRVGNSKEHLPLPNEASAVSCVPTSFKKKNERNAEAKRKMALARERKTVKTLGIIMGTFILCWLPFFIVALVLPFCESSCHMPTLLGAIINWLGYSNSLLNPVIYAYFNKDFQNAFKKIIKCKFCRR

[2] = target: T2, porcine cortical p5-HT2 serotonin receptor (Sus scrofa, UniProt P50129); test: Receptor binding assay, [3H]ketanserin competition, porcine cortical membranes; details: for Ki: means of 2-8 individual experiments each done as triplicate; for selectivity ratio p5-HT2: vs p5-HT1a
T2 construct: membrane homogenates prepared from porcine striatal or cortical tissue; from tissue; host or cells: porcine cortex
T2 sequence (P50129 whole entry): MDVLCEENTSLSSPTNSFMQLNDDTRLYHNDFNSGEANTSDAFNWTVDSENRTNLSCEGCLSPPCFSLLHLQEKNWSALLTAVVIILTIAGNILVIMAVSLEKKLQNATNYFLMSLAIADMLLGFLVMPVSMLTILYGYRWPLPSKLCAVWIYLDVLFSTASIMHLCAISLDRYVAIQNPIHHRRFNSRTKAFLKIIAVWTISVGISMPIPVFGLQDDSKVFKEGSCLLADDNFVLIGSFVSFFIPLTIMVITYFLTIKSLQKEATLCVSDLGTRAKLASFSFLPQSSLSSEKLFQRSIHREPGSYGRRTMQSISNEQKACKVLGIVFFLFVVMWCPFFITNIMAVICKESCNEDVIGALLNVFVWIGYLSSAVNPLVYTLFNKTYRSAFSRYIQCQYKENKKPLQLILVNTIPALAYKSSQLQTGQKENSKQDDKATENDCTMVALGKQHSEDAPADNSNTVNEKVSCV

[3] = target: T3, porcine striatal pD1 dopamine receptor (Sus scrofa, UniProt P50130); test: Receptor binding assay, [3H]SCH 23390 competition, porcine striatal membranes; details: for Ki: means of 2-8 individual experiments each done as triplicate; for selectivity ratio pD1: vs p5-HT1a
T3 construct: membrane homogenates prepared from porcine striatal or cortical tissue; from tissue; host or cells: porcine striatum
T3 sequence (P50130 whole entry): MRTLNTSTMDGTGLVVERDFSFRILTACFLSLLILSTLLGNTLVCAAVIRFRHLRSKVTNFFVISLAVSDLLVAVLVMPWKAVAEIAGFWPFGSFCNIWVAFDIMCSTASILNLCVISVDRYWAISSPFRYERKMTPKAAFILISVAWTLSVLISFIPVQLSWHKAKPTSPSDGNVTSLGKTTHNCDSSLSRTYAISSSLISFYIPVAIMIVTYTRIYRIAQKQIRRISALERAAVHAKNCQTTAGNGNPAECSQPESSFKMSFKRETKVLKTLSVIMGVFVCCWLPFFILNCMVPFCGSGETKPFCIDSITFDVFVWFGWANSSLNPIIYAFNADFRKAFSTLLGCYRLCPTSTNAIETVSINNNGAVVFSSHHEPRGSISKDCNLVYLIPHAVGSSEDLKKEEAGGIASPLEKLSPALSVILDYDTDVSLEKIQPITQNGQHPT

[4] = target: T4, human dopamine receptor subtype hD2long (Homo sapiens, UniProt P14416); test: Receptor binding assay, [3H]spiperone competition, CHO cell membranes; details: for Ki: means of 2-8 individual experiments each done as triplicate; for selectivity ratio hD2long: vs p5-HT1a
T4 construct: expressed in transfected cells; host or cells: CHO
T4 sequence (P14416 whole entry): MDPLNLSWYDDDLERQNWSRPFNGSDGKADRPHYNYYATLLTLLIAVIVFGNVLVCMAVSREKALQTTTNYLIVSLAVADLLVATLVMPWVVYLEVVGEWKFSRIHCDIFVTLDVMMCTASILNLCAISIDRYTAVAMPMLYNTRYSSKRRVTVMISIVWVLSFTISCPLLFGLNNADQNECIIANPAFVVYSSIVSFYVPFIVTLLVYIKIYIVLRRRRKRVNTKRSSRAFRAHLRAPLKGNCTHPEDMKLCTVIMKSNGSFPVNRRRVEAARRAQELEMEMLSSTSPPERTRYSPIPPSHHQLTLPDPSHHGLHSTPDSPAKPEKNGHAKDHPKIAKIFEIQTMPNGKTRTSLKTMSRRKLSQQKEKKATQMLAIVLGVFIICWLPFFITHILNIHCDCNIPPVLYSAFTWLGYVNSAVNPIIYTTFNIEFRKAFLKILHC
Method: (§1) Receptor binding data were determined when performing competition binding assays with membrane preparations of cloned cells (stably transfected Chinese Hamster Ovary cells (CHO)) expressing the human receptors and the following radioligands: [^3H]spiperone at the human dopamine receptor subtypes hD2long, hD2short, D3, and hD4.4.
(§2) Selectivity ratios were calculated by division of the Ki values of the various compounds at the respective receptors through the Ki values at the 5HT1a receptor.

[5] = target: T5, human dopamine receptor subtype hD2short (Homo sapiens, UniProt P14416); test: as above; details: for Ki: means of 2-8 individual experiments each done as triplicate; for selectivity ratio hD2short: vs p5-HT1a
T5 construct: expressed in transfected cells; host or cells: CHO
T5 sequence (P14416 1-414 isoform P14416-2): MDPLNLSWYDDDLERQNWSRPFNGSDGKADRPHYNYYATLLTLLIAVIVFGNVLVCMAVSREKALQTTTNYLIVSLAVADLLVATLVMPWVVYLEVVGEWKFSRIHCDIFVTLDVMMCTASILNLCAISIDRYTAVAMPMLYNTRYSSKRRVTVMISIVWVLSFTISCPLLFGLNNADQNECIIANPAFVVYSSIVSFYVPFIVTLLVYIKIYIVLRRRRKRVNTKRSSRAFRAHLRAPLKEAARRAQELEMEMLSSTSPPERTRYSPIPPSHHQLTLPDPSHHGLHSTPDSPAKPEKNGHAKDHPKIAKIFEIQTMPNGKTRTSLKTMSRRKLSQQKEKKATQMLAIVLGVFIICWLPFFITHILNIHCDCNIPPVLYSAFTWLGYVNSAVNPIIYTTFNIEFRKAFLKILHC
Method: as §1, §2

[6] = target: T6, human dopamine receptor subtype hD3 (Homo sapiens, UniProt P35462); test: as above; details: for Ki: means of 2-8 individual experiments each done as triplicate; for selectivity ratio hD3: vs p5-HT1a
T6 construct: expressed in transfected cells; host or cells: CHO
T6 sequence (P35462 whole entry): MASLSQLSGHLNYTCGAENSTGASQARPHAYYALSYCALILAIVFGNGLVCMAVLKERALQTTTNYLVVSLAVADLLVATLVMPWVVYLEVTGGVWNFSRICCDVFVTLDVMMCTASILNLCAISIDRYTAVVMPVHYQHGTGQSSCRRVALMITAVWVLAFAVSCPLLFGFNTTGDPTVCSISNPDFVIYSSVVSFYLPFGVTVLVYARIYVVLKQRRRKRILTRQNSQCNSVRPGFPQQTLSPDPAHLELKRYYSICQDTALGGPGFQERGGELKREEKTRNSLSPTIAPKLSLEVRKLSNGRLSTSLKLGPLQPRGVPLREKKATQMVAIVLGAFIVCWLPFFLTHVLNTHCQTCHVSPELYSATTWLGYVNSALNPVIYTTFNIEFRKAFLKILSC
Method: as §1, §2

[7] = target: T7, human dopamine receptor subtype hD4.4 (Homo sapiens, UniProt P21917); test: as above; details: for Ki: means of 2-8 individual experiments each done as triplicate; for selectivity ratio hD4.4: vs p5-HT1a
T7 construct: expressed in transfected cells; host or cells: CHO
T7 sequence (P21917 1-419): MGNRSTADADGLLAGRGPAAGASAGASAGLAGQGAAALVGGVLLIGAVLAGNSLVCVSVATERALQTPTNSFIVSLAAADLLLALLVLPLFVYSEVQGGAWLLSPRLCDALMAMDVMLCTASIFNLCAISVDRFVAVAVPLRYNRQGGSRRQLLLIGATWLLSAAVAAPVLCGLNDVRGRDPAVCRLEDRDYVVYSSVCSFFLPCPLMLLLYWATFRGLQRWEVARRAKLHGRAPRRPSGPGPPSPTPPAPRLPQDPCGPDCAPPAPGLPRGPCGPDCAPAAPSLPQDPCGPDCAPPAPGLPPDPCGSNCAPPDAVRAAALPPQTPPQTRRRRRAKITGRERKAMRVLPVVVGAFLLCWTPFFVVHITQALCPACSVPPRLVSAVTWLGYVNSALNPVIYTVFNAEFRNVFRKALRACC
Method: Receptor binding data were determined when performing competition binding assays with membrane preparations of cloned cells (stably transfected Chinese Hamster Ovary cells (CHO)) expressing the human receptors and the following radioligands: [^3H]spiperone at the human dopamine receptor subtypes hD2long, hD2short, D3, and hD4.4. […].
as §2

[8] = target: T8, porcine cortical pα1 adrenergic receptor; test: Receptor binding assay, [3H]prazosin competition, porcine cortical membranes; details: means of 2-8 individual experiments each done as triplicate
T8 construct: Ki pα1; other: means of 2-8 individual experiments each done as triplicate

[9] = tested on: porcine cortical pα1 adrenergic receptor; test: as above; details: vs p5-HT1a
[10] = target: T9, human 5-HT1a receptor (Homo sapiens, UniProt P08908); test: [35S]GTPγS functional assay; type: biochemical
T9 construct: expressed in transfected cells
T9 sequence (P08908 1-422): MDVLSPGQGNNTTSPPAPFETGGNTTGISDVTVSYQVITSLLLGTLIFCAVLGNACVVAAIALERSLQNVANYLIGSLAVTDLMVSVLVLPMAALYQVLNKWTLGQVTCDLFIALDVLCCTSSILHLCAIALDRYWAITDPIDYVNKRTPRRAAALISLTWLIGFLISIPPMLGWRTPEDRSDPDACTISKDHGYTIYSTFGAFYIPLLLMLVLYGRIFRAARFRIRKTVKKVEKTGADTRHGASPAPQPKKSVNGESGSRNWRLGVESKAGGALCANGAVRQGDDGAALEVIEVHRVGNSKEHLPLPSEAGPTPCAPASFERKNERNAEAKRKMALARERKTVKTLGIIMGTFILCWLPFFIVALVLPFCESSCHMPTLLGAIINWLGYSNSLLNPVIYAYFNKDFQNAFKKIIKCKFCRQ
Method: Specific binding of [^35S]GTPγS is stimulated by activation of the stably expressed human 5-HT1a receptor in a dose-dependent way by agonists for this GPCR and is determined by measuring the radioactive label of the membrane. Non-linear regression analysis of the resulting dose-response curves yields the EC50 value in [nM] representing the half maximal concentration which is necessary to activate the receptor completely.

## CCCN(CCc1cc(C)ccc1C)C1CCc2cccc(OC)c2C1 (centres unmarked) [Compound 8, N-(8-Methoxytetralin-2-yl)-N-propyl-N-[2-(2,5-dimethyl)phenylethyl]amine]
[1]
  Ki: 24 nM
[2]
  Ki: 4400 nM
[3]
  Ki: 6200 nM
[4]
  Ki: 300 nM
[5]
  Ki: 180 nM
[6]
  Ki: 110 nM
[7]
  Ki: 940 nM
[8]
  Ki: 510 nM

## N-(2-Ferrocenylethyl)-N-(8-methoxytetralin-2-yl)-N-propylamine [Compound 12]
[1]
  Ki: 1.8 nM
[2]
  Ki: 2200 nM
[3]
  Ki: 2600 nM
[4]
  Ki: 38 nM
[5]
  Ki: 17 nM
[6]
  Ki: 11 nM
[7]
  Ki: 3.5 nM
[8]
  Ki: 92 nM

## CCCN(CCc1cc2ccc1CCc1ccc(cc1)CC2)C1CCc2cccc(O)c2C1 (centres unmarked) [Compound 13, N-(8-Hydroxytetralin-2-yl)-N-[2-([2.2]paracyclophan-4-yl)ethyl]-N-propylamine]
[1]
  Ki: 15 nM
  selectivity ratio p5-HT1a: 1
[2]
  Ki: 2100 nM
  selectivity ratio p5-HT2: 140
[3]
  Ki: 3500 nM
  selectivity ratio pD1: 230
[4]
  Ki: 990 nM
  selectivity ratio hD2long: 66
[5]
  Ki: 640 nM
  selectivity ratio hD2short: 43
[6]
  Ki: 170 nM
  selectivity ratio hD3: 11
[7]
  Ki: 87 nM
  selectivity ratio hD4.4: 5.8
[9]
  selectivity ratio pα1: 62
[8]
  Ki: 930 nM

## CCCN(CCc1cccs1)[C@H]1CCc2cccc(OC)c2C1 [Compound 2b, (S)—N-(8-Methoxytetralin-2-yl)-N-propyl-N-[2-(2-thienyl)ethyl]amine]
[1]
  Ki: 6.7 nM
[2]
  Ki: 3900 nM
[3]
  Ki: 3300 nM
[4]
  Ki: 85 nM
[5]
  Ki: 58 nM
[6]
  Ki: 32 nM
[7]
  Ki: 760 nM
[8]
  Ki: 140 nM

## N-(2-Ferrocenylethyl)-N-(8-hydroxytetralin-2-yl)-N-propylamine [Compound 11]
[1]
  Ki: 0.32 nM
[2]
  Ki: 930 nM
[3]
  Ki: 3100 nM
[4]
  Ki: 34 nM
[5]
  Ki: 16 nM
[6]
  Ki: 52 nM
[7]
  Ki: 7.4 nM
[8]
  Ki: 170 nM

## CCCN(CCc1cc2ccc1CCc1ccc(cc1)CC2)C1CCc2cccc(OC)c2C1 (centres unmarked) [Compound 14, N-(8-Methoxytetralin-2-yl)-N-propyl-N-[2-([2.2]paracyclophan-4-yl)ethyl]-amine]
[1]
  Ki: 50 nM
  selectivity ratio p5-HT1a: 1
[2]
  Ki: 7300 nM
  selectivity ratio p5-HT2: 150
[3]
  Ki: 1900 nM
  selectivity ratio pD1: 38
[4]
  Ki: 48 nM
  selectivity ratio hD2long: 0.96
[5]
  Ki: 35 nM
  selectivity ratio hD2short: 0.70
[6]
  Ki: 33 nM
  selectivity ratio hD3: 0.66
[7]
  Ki: 110 nM
  selectivity ratio hD4.4: 2.2
[9]
  selectivity ratio pα1: 5.6
[8]
  Ki: 280 nM

## CCCN(CCc1ccccc1)C1CCc2cccc(O)c2C1 (centres unmarked) [Compound 3, N-(8-Hydroxytetralin-2-yl)-N-(2-phenylethyl)-N-propylamine]
[1]
  Ki: 0.62 nM
  selectivity ratio p5-HT1a: 1
[2]
  Ki: 5800 nM
  selectivity ratio p5-HT2: 9 400
[3]
  Ki: 9100 nM
  selectivity ratio pD1: 15 000
[4]
  Ki: 760 nM
  selectivity ratio hD2long: 1 200
[5]
  Ki: 170 nM
  selectivity ratio hD2short: 270
[6]
  Ki: 190 nM
  selectivity ratio hD3: 310
[7]
  Ki: 590 nM
  selectivity ratio hD4.4: 950
[9]
  selectivity ratio pα1: 230
[8]
  Ki: 140 nM

## CCCN(CCC)C1CCc2cccc(O)c2C1 (stereo not drawn) [R-(+)-8-OH-DPAT, reference compound]
[1]
  Ki: 1.2 nM
[2]
  Ki: 2100 nM
[3]
  Ki: 3300 nM
[7]
  Ki: 210 nM
[8]
  Ki: 250 nM

## CCCN(CCc1cccs1)C1CCc2cccc(OC)c2C1 (centres unmarked) [Compound 2, N-(8-Methoxytetralin-2-yl)-N-propyl-N-[2-(2-thienyl)ethyl]amine]
[1]
  Ki: 2.9 nM
[2]
  Ki: 12000 nM
[3]
  Ki: 6700 nM
[4]
  Ki: 160 nM
[5]
  Ki: 390 nM
[6]
  Ki: 57 nM
[7]
  Ki: 390 nM
[8]
  Ki: 200 nM
[10]; mean values of 2-8 individual experiments
  EC50: 6.3 nM
[10]; read-out: intrinsic activity [% rel. to serotonin]
  Emax: 91%

## CCCN(CCc1cccs1)[C@H]1CCc2cccc(O)c2C1 [Compound 1b, (S)—N-(8-Hydroxytetralin-2-yl)-N-propyl-N-[2-(2-thienyl)ethyl]amine]
[1]
  Ki: 1.8 nM
  selectivity ratio p5-HT1a: 1
[2]
  Ki: 5500 nM
  selectivity ratio p5-HT2: 3 100
[3]
  Ki: 5400 nM
  selectivity ratio pD1: 3 000
[4]
  Ki: 520 nM
  selectivity ratio hD2long: 290
[5]
  Ki: 290 nM
  selectivity ratio hD2short: 160
[6]
  Ki: 49 nM
  selectivity ratio hD3: 26
[7]
  Ki: 690 nM
  selectivity ratio hD4.4: 380
[9]
  selectivity ratio pα1: 110
[8]
  Ki: 200 nM

## CCCN(CCc1ccc(OC)cc1)C1CCc2cccc(OC)c2C1 (centres unmarked) [Compound 6, N-[2-(4-Methoxyphenyl)ethyl]-N-(8-methoxytetralin-2-yl)-N-propylamine]
[1]
  Ki: 5.5 nM
[2]
  Ki: 4900 nM
[3]
  Ki: 9500 nM
[4]
  Ki: 340 nM
[5]
  Ki: 260 nM
[6]
  Ki: 110 nM
[7]
  Ki: 470 nM
[8]
  Ki: 230 nM
